# Test results published in paper PMC5613772 (Biochemistry and Biophysics Reports, 2016).
# What was measured:
# [1] = target: T1, L. donovani Gcs full length (GcsF, LdGcs, Gcs) (Leishmania donovani, UniProt Q67BG3); test: tryptophan fluorescence quenching; type: binding
# T1 sequence (Q67BG3 1-687): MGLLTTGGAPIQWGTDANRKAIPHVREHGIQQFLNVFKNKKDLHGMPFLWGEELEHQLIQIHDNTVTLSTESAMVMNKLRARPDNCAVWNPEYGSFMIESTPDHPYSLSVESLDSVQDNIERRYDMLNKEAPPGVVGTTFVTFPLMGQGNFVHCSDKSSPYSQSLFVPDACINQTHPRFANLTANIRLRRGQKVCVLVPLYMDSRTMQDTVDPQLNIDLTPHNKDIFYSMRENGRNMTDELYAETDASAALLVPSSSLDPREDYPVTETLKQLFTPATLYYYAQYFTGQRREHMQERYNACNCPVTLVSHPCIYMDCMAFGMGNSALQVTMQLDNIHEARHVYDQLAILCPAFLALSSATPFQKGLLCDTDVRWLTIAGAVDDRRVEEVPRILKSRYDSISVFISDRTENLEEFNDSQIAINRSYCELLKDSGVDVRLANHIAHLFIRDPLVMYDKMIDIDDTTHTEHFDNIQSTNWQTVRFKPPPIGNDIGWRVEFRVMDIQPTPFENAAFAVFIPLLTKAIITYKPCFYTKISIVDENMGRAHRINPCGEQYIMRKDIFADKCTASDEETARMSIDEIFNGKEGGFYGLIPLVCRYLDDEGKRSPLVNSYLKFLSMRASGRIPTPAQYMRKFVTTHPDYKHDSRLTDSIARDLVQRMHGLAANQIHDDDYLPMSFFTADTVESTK
# [2] = target: GcsC (Leishmania donovani, UniProt Q67BG3); conditions: value said to be in Table 2 but not printed there
# [3] = target: L. donovani Gcs full length (GcsF, LdGcs, Gcs) (Leishmania donovani, UniProt Q67BG3, R498A); test: biochemical
# [4] = target: L. donovani Gcs full length (GcsF, LdGcs, Gcs) (Leishmania donovani, UniProt Q67BG3, E99A); test: biochemical
# [5] = target: L. donovani Gcs full length (GcsF, LdGcs, Gcs) (Leishmania donovani, UniProt Q67BG3, E55A); test: biochemical
# [6] = target: L. donovani Gcs full length (GcsF, LdGcs, Gcs) (Leishmania donovani, UniProt Q67BG3, E92A); test: biochemical
smiles,measurement,setting,value
Nc1ncnc2c1ncn2[C@@H]1O[C@H](COP(=O)(O)OP(=O)(O)OP(=O)(O)O)[C@@H](O)[C@H]1O [ATP],Kd,[1],2.7 ± 0.3 µM
same,ITC or tryptophan fluorescence quenching (not told),[2],GcsT and C-terminal constructs also show comparable binding with ATP
same,Kd,[3],1550 ± 238 µM
same,Kd,[4],5.8 ± 0.3 µM
same,Kd,[5],2.5 ± 1 µM
same,Kd,[6],3235 ± 0.937 µM
N[C@@H](CS)C(=O)O [L-Cysteine],Kd,[1],177 ± 2.6 µM
same,Kd,[5],95 ± 2.1 µM
same,Kd,[6],115 ± 0.35 µM
N[C@@H](CCC(=O)O)C(=O)O [L-Glutamate],Kd,[1],93.7 ± 1.8 µM
same,Kd,[3],890 ± 0.167 µM
same,Kd,[4],666 ± 0.3 µM
same,Kd,[5],793 ± 0.182 µM
same,Kd,[6],107 ± 0.16 µM
